One series concerns human lung (A549). In words: In vitro microdilution inhibition, human lung A549. The format is cell-based. The following applies: A549, 72 hours, 50% of cells killed. From the text:
(§1) As shown in Table III the compounds of the present invention exert an in vitro antitumor effect. The following cells lines were employed: human lung (A549); resistant human lung with low topo II activity (A549-VP); murine melanoma (B16); human colon tumor (HCT116); human colon tumor with elevated p170 levels (HCTVM); human colon tumor with low topo II activity (HCTVP); and another human colon carcinoma cell line (Moser). In the Table, the designation "NT" indicates the compound was not tested against the specified cell line. The cell lines were maintained in continuous culture at 37°, 5% CO2 and high humidity. Cells were harvested in log phase growth and suspended at concentration of 25,000 cells/mL. A […] aliquot was then added to each well (i.e., 3,750 cells per well) of a 96-well flat bottom plate and the cells were allowed to attach over a 24 hour period. After this 24 hour incubation, a 50 μL sample of the specified compound was added to the first (top) well of each column, and the remaining wells of each column serially diluted, 1:4, and allowed to incubate for 72 hours at 37° C., 5% CO2 and high humidity. Following incubation, 50 μL of freshly prepared stain solution was added to each well. After a 3 hour incubation at room temperature, absorbance was read at 450 nm on a microplate reader to determine the compound concentration at which 50% of the cells were killed, such concentration referred to as the "IC50 ".
A general note: Broth dilution looks for growth in wells or tubes with falling amounts of substance.

Series [1] relates to resistant human lung with low topo II activity (A549-VP). Briefly: In vitro microdilution inhibition, resistant human lung A549-VP. The series is classed as cell-based. Particulars: A549VP, 72 hours, 50% of cells killed.
From the text: as §1

Another series concerns murine melanoma (B16). In words: In vitro microdilution inhibition, B16. The format is cell-based. The following applies: Mus musculus; B16, 72 hours, 50% of cells killed.
From the text: as §1

Series [2] has as its system human colon tumor (HCT116). Briefly: In vitro microdilution inhibition, HCT116. Particulars: HCT-116, 72 hours, 50% of cells killed. The series is classed as cell-based.
From the text: as §1

In series [3] the test system is human colon tumor with elevated p170 levels (HCTVM). In words: In vitro microdilution inhibition, HCTVM. The format is cell-based. Particulars: 72 hours, 50% of cells killed.
From the text: as §1

Series [4] has as its system human colon tumor with low topo II activity (HCTVP). In words: In vitro microdilution inhibition, HCTVP. The format is cell-based. Particulars: 72 hours, 50% of cells killed.
From the text: as §1

For the next series, the system named is p388 murine leukemia. In words: In vivo activity against p388 murine leukemia in an acute mouse model. The following applies: CDF1 (female only); for AWC (average weight change per mouse): before treatment to day five. As to the method:
CDF1 mice of both sexes weighing between 16 and 25 gm. were used, with a 2 gm. weight range and same sex and source used per experiment. BDF1 mice also were used with the same weight, sex and source parameters. Control and test animals were injected interperitoneally with suspension of 1×10^6 p388 murine leukemia cells (0.5 mL dose) on day 0. Groups of 4-6 mice were used for each dosage amount they were treated with 5 doses on day one. A group of ten saline treated control mice was included in each set of experiments. A 30 day protocol was employed with mean survival time in days being determined for each group of mice with the number of survivors at the end of the 30 day period being noted. The mice were weighed before treatment and again on day five. The values listed for average weight change (AWC) is the average weight change per mouse at the specified dose. The change in weight was taken as a measure of drug toxicity. A loss in weight of up to 2 grams is not considered excessive. The results were determined in terms of % T/C which is the ratio of the mean survival time of the treated group to the mean survival time of the saline treated group times 100.

Values after ≈ are worked out from the molar mass of the structure shown. Counter-ions that a name gives are not always drawn.

A word on the IC50: it is the concentration that gives 50% inhibition. Turning to `O=C1C=CC(=O)c2c(O)c3c(c(O)c21)C(=O)C1(CCc2ccccc21)C3=O` [Example 4, 2',3'-Dihydro-1H-indene-1'-spiro-2-[4,9-dihydroxy-2H-benz[f]-indene-1,3,5,8-tetrone]], the IC50 in the series on human lung (A549) is 1.5 µg/mL (≈ 4.16 µM); in series [1], 2.3 µg/mL (≈ 6.38 µM); in the series with murine melanoma (B16) it was 1 µg/mL (≈ 2.78 µM); in series [2] it was 0.3 µg/mL (≈ 0.833 µM); in series [3], 0.3 µg/mL (≈ 0.833 µM); in series [4], 0.4 µg/mL (≈ 1.11 µM).

On to `COCOc1cccc2c1C1(CC2)C(=O)c2c(O)c3c(c(O)c2C1=O)C(=O)C(OC)=CC3=O` (centres unmarked) [Example 5, 2',3'-Dihydro-7'-(methoxymethoxy)-6-methoxy-1H-indene-1'-spiro-2-[4,9-dihydroxy-2H-benz[f]indene-1,3,5,8-tetrone]], for which the IC50 is 0.4 µg/mL (≈ 0.888 µM) in the series on human lung (A549); 1.1 µg/mL (≈ 2.44 µM) in series [1]; 0.7 µg/mL (≈ 1.55 µM) in the series with murine melanoma (B16); 0.09 µg/mL (≈ 0.2 µM) in series [2]; 0.2 µg/mL (≈ 0.444 µM) in series [3]; 0.2 µg/mL (≈ 0.444 µM) in series [4].

On to `COC1=CC(=O)c2c(O)c3c(c(O)c2C1=O)C(=O)C1(CCc2cccc(O)c21)C3=O` (centres unmarked) [Example 6, 2',3'-Dihydro-7'-hydroxy-6-methoxy-1H-indene-1'-spiro-2-[4,9-dihydroxy-2H-benz[f]indene-1,3,5,8-tetrone]], for which the IC50 was found to be 4.9 µg/mL (≈ 12.1 µM) in the series on human lung (A549); 6.4 µg/mL (≈ 15.8 µM) in series [1]; 5.2 µg/mL (≈ 12.8 µM) in the series with murine melanoma (B16); 1.6 µg/mL (≈ 3.94 µM) in series [2]; 1.7 µg/mL (≈ 4.18 µM) in series [3]; 3.5 µg/mL (≈ 8.61 µM) in series [4].

As for `CCNC1=CC(=O)c2c(O)c3c(c(O)c2C1=O)C(=O)C1(CCc2cccc(OCOC)c21)C3=O` (centres unmarked) [Example 11, 2',3'-Dihydro-6-ethylamino-7'-(methoxymethoxy)-1H-indene-1'-spiro-2-[4,9-dihydroxy-2H-benz[f]-indene-1,3,5,8-tetrone]], the IC50 with human lung (A549) was under 0.03 µg/mL; in series [1], 0.03 µg/mL (≈ 0.0647 µM); in the series on murine melanoma (B16), 0.03 µg/mL (≈ 0.0647 µM); in series [2], 0.03 µg/mL (≈ 0.0647 µM); in series [3] it was 0.03 µg/mL (≈ 0.0647 µM); in series [4], 0.03 µg/mL (≈ 0.0647 µM).

As for `COCOc1cccc2c1C1(CC2)C(=O)c2c(O)c3c(c(O)c2C1=O)C(=O)C(NCC(F)(F)F)=CC3=O` (centres unmarked) [Example 13, 2',3'-Dihydro-6-(2,2,2-trifluoroethylamino)-7'-(methoxymethoxy)-1H-indene-1'-spiro-2-[4,9-dihydroxy-2H-benz[f]-indene-1,3,5,8-tetrone]], the IC50 in the series on human lung (A549) was under 0.03 µg/mL; in series [1] it was 0.05 µg/mL (≈ 0.0966 µM); with murine melanoma (B16), 0.03 µg/mL (≈ 0.058 µM); in series [2] it was 0.03 µg/mL (≈ 0.058 µM); in series [3] it was 0.03 µg/mL (≈ 0.058 µM); in series [4], 0.04 µg/mL (≈ 0.0773 µM).

Consider `COCOc1cccc2c1C1(CC2)C(=O)c2c(O)c3c(c(O)c2C1=O)C(=O)C(NCC(O)c1ccccc1)=CC3=O` (centres unmarked) [Example 17, 2',3'-Dihydro-7'-(methoxymethoxy)-1H-indene-1'-spiro-2-[6-(2-hydroxy-2-phenyl-ethylamino)-4,9-dihydroxy-2H-benz[f]indene-1,3,5,8-tetrone]], for which the IC50 stood at 15 µg/mL (≈ 27 µM) with murine melanoma (B16) and 1.47 µg/mL (≈ 2.65 µM) in series [2].

For `COCOc1cccc2c1C1(CC2)C(=O)c2c(O)c3c(c(O)c2C1=O)C(=O)C(Nc1ccc(C(=O)O)cc1)=CC3=O` (centres unmarked) [Example 19, 2',3'-Dihydro-7'-(methoxymethoxy)-1H-indene-1'-spiro-2-[6-(4-carboxyanilino)-4,9-dihydroxy-2H-benz[f]indene-1,3,5,8-tetrone]], the IC50 in the series on murine melanoma (B16) was 27 µg/mL (≈ 48.6 µM); in series [2], 322 µg/mL (≈ 580 µM).

As to `COCOc1cccc2c1C1(CC2)C(=O)c2c(O)c3c(c(O)c2C1=O)C(=O)C(Nc1ccc(O)cc1)=CC3=O` (centres unmarked) [Example 21, 2',3'-Dihydro-7'-(methoxymethoxy)-1H-indene-1'-spiro-2-[6-(4-hydroxyanilino)-4,9-dihydroxy-2H-benz[f]indene-1,3,5,8-tetrone]], the figures for the IC50 (in the series on murine melanoma (B16); in series [2]) were 18.7 µg/mL (≈ 35.5 µM) and 6.79 µg/mL (≈ 12.9 µM), respectively.

Take `CCCCCc1cc2cc3c(c(OCOC)c2c(OC)n1)C1(CC3)C(=O)c2c(O)c3c(c(O)c2C1=O)C(=O)C(NCC)=CC3=O` (centres unmarked) [Example 22, 6',7'-Dihydro-4,9-dihydroxy-6-ethylamino-1'-methoxy-9'-(methoxymethoxy)-3'-(n-pentyl)-spiro[2H-benz[f]-indene-2,8'[8H]cyclopent[g]isoquinoline]-1,3,5,8-tetrone]: the “AWC (average weight change per mouse)” value is 1.5 with p388 murine leukemia (3.3 mg/kg), 1.0 in the series on p388 murine leukemia (10 mg/kg) and -0.2 in the series with p388 murine leukemia (30 mg/kg). In the series on p388 murine leukemia (Mus musculus, P388, 720 h, 3.3 mg/kg, read-out: % T/C (mean survival time treated/control)), the response vs control in vivo at 3.3 mg/kg was 95%. Besides, the response vs control in vivo at 10 mg/kg in the series on p388 murine leukemia (Mus musculus, P388, 720 h, 10 mg/kg, read-out: % T/C (mean survival time treated/control)) is 105%. Besides, the response vs control in vivo at 30 mg/kg in the series on p388 murine leukemia (Mus musculus, P388, 720 h, 30 mg/kg, read-out: % T/C (mean survival time treated/control)) is 135%.

As to `COCOc1cccc2c1C1(CC2)C(=O)c2c(O)c3c(c(O)c2C1=O)C(=O)C(N[C@@H](CC(N)=O)C(=O)O)=CC3=O` (some centres unmarked) [Example 26, 2',3'-Dihydro-7'-(methoxymethoxy)-1H-indene-1'-spiro-2-4,9-dihydroxy-6-(1-carboxy-2-carbamoylethylamino)-2H-benz[f]indene-1,3,5,8-tetrone], the IC50 in the series with murine melanoma (B16) stood at 9.3 µg/mL (≈ 16.9 µM); in series [2], 1.23 µg/mL (≈ 2.23 µM).

With `COCOc1cccc2c1C1(CC2)C(=O)c2c(O)c3c(c(O)c2C1=O)C(=O)C(NC1C(=O)N2C1SC(C)(C)C2C(=O)O)=CC3=O` (centres unmarked) [Example 27, 6-((2',3'-dihydro-7'-(methoxymethoxy)-1H-indene-1'-spiro-[4,9-dihydroxy-2H-benz[f]indene-1,3,5,8-tetrone]-6-yl)amino)penicillanic acid], the figures for the IC50 (in the series on murine melanoma (B16); in series [4]) were 0.24 µg/mL (≈ 0.378 µM) and 0.22 µg/mL (≈ 0.347 µM), respectively.

For `N=C(N)NCCC[C@H](NC1=CC(=O)c2c(O)c3c(c(O)c2C1=O)C(=O)C1(CCc2cccc(O)c21)C3=O)C(=O)O` (some centres unmarked) [Example 28], the IC50 was over 500 µg/mL in the series with murine melanoma (B16) and 71 µg/mL (≈ 129 µM) in series [2].

Regarding `COCOc1cccc2c1C1(CC2)C(=O)c2c(O)c3c(c(O)c2C1=O)C(=O)C(SCCO)=CC3=O` (centres unmarked) [Example 33, 2',3'-Dihydro-7'-(methoxymethoxy)-1H-indene-1'-spiro-2-[4,9-dihydroxy-6-(2-hydroxyethylmercapto)-2H-benz[f]indene-1,3,5,8-tetrone]], the IC50 was determined as 107 µg/mL (≈ 216 µM) in the series on murine melanoma (B16) and 5.08 µg/mL (≈ 10.2 µM) in series [2].

Turning to `COCOc1cccc2c1C1(CC2)C(=O)c2c(O)c3c(c(O)c2C1=O)C(=O)C(Sc1ccccc1)=CC3=O` (centres unmarked) [Example 34, 2',3'-Dihydro-7'-(methoxymethoxy)-1H-indene-1'-spiro-2-[4,9-dihydroxy-6-(phenylmercapto)-2H-benz[f]indene-1,3,5,8-tetrone]], the values for the IC50 (in the series on murine melanoma (B16); in series [2]) were 110 µg/mL (≈ 208 µM) and 78 µg/mL (≈ 148 µM), respectively.

For the compound `NCCSSCCNC1=CC(=O)c2c(O)c3c(c(O)c2C1=O)C(=O)C1(CCc2cccc(O)c21)C3=O` (centres unmarked) [Example 35, 2',3'-Dihydro-7'-hydroxy-1H-indene-1'-spiro-2-[4,9-dihydroxy-6-(2(2-aminoethyldithio)ethylamino)-2H-benz[f]indene-1,3,5,8-tetrone] hydrochloride], the IC50 with murine melanoma (B16) was found to be 24 µg/mL; in series [4], 22 µg/mL.

Consider `COCOc1cccc2c1C1(CC2)C(=O)c2c(O)c3c(c(O)c2C1=O)C(=O)C(Nc1ccc(SSc2ccc(N)cc2)cc1)=CC3=O` (centres unmarked) [Example 36, 2',3'-Dihydro-7'-(methoxymethoxy)-1H-indene-1'-spiro-2-[4,9-dihydroxy-6-(4-(4-aminophenyldithio)phenylamino)-2H-benz[f]indene-1,3,5,8-tetrone]], for which the half-maximal inhibitory concentration (IC50) in the series on murine melanoma (B16) is 458 µg/mL (≈ 687 µM); in series [2], over 500 µg/mL.

Source of the values: patent publication US5166208A, “Fredericamycin A derivatives” (Boston College, priority 1991, dated 1992).
